Data set [1] has as its system HSV1-TK expressing tk(-) 3T3 cells (bulk). The data set can be described thus: Cytotoxicity assay, bulk transfected tk(-) 3T3 cells. The format is cell-based, murine. The following applies: for IC50: Mus musculus, NIH3T3, 168 h; for Selectivity Index: IC50 ratio of parental to HSV1-TK transfected cells (bulk). The protocol:
(§1) Cells were transfected by the various plasmids using a calcium phosphate precipitation kit (GibcoBRL). After 48 h of phenotypic expression, cells were grown in selective medium with zeocin (Cayla, Toulouse, France): 25 µg/ml (3T3 cells), 50 µg/ml (143 B cells) or 100 µg/ml (PANC-O2 and HCT 116 cells).
(§2) Cells were seeded at 2.5x10^3 per wells in 24-wells plates. 24 h later they were grown in drug-containing medium for 7 days. Drug concentrations ranging from 0.001 nM to 100 µM were tested in triplicate. The medium was changed with fresh DMEM every 2 days. On day 6, 1.5 µCi of [methyl-^3H]thymidine (Amersham, UK) was added per well. After washes with phosphate-buffered saline (PBS pH 7.3), incorporated radioactivity was determined with a Micro-Beta Plus counter (EG&G Instruments and Wallac, Turku, Finland).
(§3) Drug toxicity was assessed by measuring inhibition of cell proliferation. Cells were grown in drug-containing medium for 7 days. [methyl-^3H]-thymidine was added at day 6 and incorporated radioactivity was measured.

Data set [2] has as its system EBV-TK expressing tk(-) 3T3 cells (bulk). The data set is described as above. The format is cell-based, murine. The following applies: for IC50: Mus musculus, NIH3T3, 168 h; for Selectivity Index: IC50 ratio of parental to EBV-TK transfected cells (bulk). Here is the method: as §1, §2, §3
For a further data set, the system named is NIH-3T3. The data set can be described thus: Cytotoxicity assay (inhibition of [methyl-3H]thymidine incorporation), parental cells. The format is cell-based, murine. The following applies: Mus musculus, parental NIH-3T3. Here is the method: as §2, §3
For data set [3], the system named is murine tk(-) 3T3 HSV1-TK expressing clones. The data set can be described thus: Cytotoxicity assay, TK expressing clones. The format is cell-based. The following applies: for IC50: Mus musculus, Table 2, HSV1-TK clones, mean of 3 experiments; for Selectivity Index: IC50 ratio of parental to HSV1-TK clones. Here is the method: as §2
(§4) Drug sensitivity of TK expressing clones were tested as described in Table 1.

Data set [4] relates to VZV-TK expressing tk(-) 3T3 cells (bulk). The data set can be described thus: Cytotoxicity assay, bulk transfected tk(-) 3T3 cells. Type of data set: cell-based, murine. The following applies: for Selectivity Index: IC50 ratio of parental to VZV-TK transfected cells (bulk); for IC50: Mus musculus, NIH3T3, 168 h. The protocol: (§5) Cells were transfected by the various plasmids using a calcium phosphate precipitation kit (GibcoBRL).
as §2, §3

Data set [5] has as its system EHV4-TK expressing tk(-) 3T3 cells (bulk). The data set is described as above. The following applies: for Selectivity Index: IC50 ratio of parental to EHV4-TK transfected cells (bulk); for IC50: Mus musculus, NIH3T3, 168 h. The format is cell-based, murine. The protocol:
as §5, §2, §3

The test system of data set [6] is murine tk(-) 3T3 EHV4-TK expressing clones. The data set can be described thus: Cytotoxicity assay, TK expressing clones. Type of data set: cell-based. The following applies: for Selectivity Index: IC50 ratio of parental to EHV4-TK clones; for IC50: Mus musculus. The protocol: as §2, §4
In data set [7] the test system is human tk(-) 143B cells transfected with HSV1- or EHV4-TK. The data set can be described thus: Cytotoxic activity on human cell bulks, EHV4-TK compared with HSV1-TK (Figure 3). Type of data set: cell-based. The following applies: human tk(-) 143B cell bulks. Here is the method:
Toxicity is presented as mean of IC50 values ± SD. The means, determined on 3 independent experiments, are indicated on the top of each histogram.
as §2
Human tk(-) osteosarcoma 143B cell bulks expressing HSV1- or EHV4-TK were thus generated. We first analyzed the herpesvirus-TK protein expression levels for each cell bulks by […] using polyclonal antibodies against Sh protein (Figure 2-B). There was no detectable band corresponding to fused protein in tk(-) 143B cell extracts.

The test system of a further data set is tk(-) 3T3 cells. The experiment in a line: GCV toxicity, viability assay (Figure 5-B), non-transfected cells. Type of data set: cell-based, murine. The following applies: Mus musculus, NIH3T3; non-transfected tk(-) 3T3; % viable cells. Here is the method: (§6) (A) E-GFP expression in tk(-) 3T3 transfected and non-transfected cells. EHV4-TK gene fused with E-GFP gene (Figure 1-B) was transfected in tk(-) 3T3 cells, and E-GFP positive cells were detected by FACS analysis. Expression of E-GFP was determined a week after transfection (1) and after 2 months of culture in HAT medium (2). (B) GCV toxicity in transfected and non-transfected cells. Results were expressed as % of viable cells compared to cells grown without GCV.
(§7) Parental and viral-TK expressing cells were plated at 5x10^3 per wells in 6-wells dishes. After 24 h, drugs was added to the medium at various concentrations ranging from 0.01 to 100 µM. Medium containing drugs was changed every 2 days. After 7 days of culture, cell viability was assayed by counting viable cells by trypan blue exclusion after 7 days of culture with GCV.
(§8) To facilitate the transgene detection in transfected cells or tissues, the E-GFP gene was fused in frame at the 3' end of the EHV4-TK gene and cloned into an expression vector (Figure 1-B). This construction was then transfected into tk(-) 3T3 cells, followed by FACS analysis of E-GFP positive cells. A cell bulk containing 95% of E-GFP expressing cells was obtained. […] Expression of the EHV4-TK/E-GFP fusion protein efficiently sensitized these cells to GCV for which the IC50 was 0.6 µM, compared to 30 µM for tk(-) 3T3 cells (Figure 5-B).

Data set [8] deals with EHV4-TK expressing HCT116 cells. The experiment in a line: Cytotoxicity assay, colonic carcinoma cells. The format is cell-based, human. Here is the method:
as §2

The subject of data set [9] is HSV1-TK expressing HCT116 cells. The experiment in a line: Cytotoxicity assay, colonic carcinoma cells. Type of data set: cell-based, human. The protocol: as §2
In data set [10] the test system is tk(-) 3T3 cells expressing EHV4-TK/E-GFP fusion protein. The data set can be described thus: GCV toxicity, viability assay (Figure 5-B). The format is cell-based, murine. The following applies: Mus musculus, NIH3T3. The protocol:
as §6, §7, §8

The conditions of data set [11]: 10 mg/kg twice a day, humans (refs 34, 35); cited from earlier work.
For the next data set, the system named is HCT116 cells. The experiment in a line: Cytotoxicity assay, colonic carcinoma cells, parental. The format is cell-based. The following applies: Homo sapiens, HCT-116, mean. The protocol: as §2
The test system of data set [12] is EHV4-TK expressing PANC-O2 cell bulk. The experiment in a line: Cytotoxicity assay, pancreatic tumor cell bulk. Type of data set: cell-based, murine. Here is the method: as §2
Data set [13] concerns HSV1-TK expressing PANC-O2 cell bulk. The experiment in a line: Cytotoxicity assay, pancreatic tumor cell bulk. Type of data set: cell-based, murine. The following applies: Mus musculus, means of two independent experiments. The protocol:
as §2

Where [14] appears, read: NIH3T3, 168 h, Table 1, 7 days drug, mean of 2 experiments.
Setting [15] is: NIH3T3, Table 2, mean of 3 experiments.

Each structure is given as a SMILES string.

This is an account of results in patent EP1046400B1, “Use of an Equine herpes virus type-4 thymidine kinase and a nucleoside analog selected from ganciclovir and acyclovir for the killing of human proliferative cells” (Université Pierre et Marie Curie (Paris VI), priority 1999, dated 2000).

The IC50 is the concentration that inhibits the measured activity by half.

`Nc1nc2c(ncn2COCCO)c(=O)[nH]1` [ACV, 9-(2-hydroxyethoxymethyl)guanine]: the IC50 in data set [1] came to 8700 nM; in [2] it was 43300 nM; in the data set on NIH-3T3 (setting [14]), 165000 nM; with NIH-3T3 (setting [15]) it was 53300 nM; in [3] it was 15000 nM.

Take `O=c1[nH]c(=O)n([C@H]2C[C@H](O)[C@@H](CO)O2)cc1/C=C/Br` [BVDU, (E)-5-(2-bromovinyl)-2'-deoxyuridine]: the “Selectivity Index” value stood at 5500 in [1]; 1375 in [2]; 2750 in data set [4]; 2750 in [5]; 1237 in data set [6]; 3331 in [3]. The IC50 was found to be 15 nM in data set [1]; 40 nM in [2]; 55000 nM in the data set on NIH-3T3 (setting [14]); 43300 nM with NIH-3T3 (setting [15]); 16 nM in data set [4]; 20 nM in data set [5]. Also, the IC50 was 35 nM in [6] and 13 nM in data set [3]. In addition, the “toxicity / sensitivity in EHV4-TK compared with HSV1-TK expressing cells” value in data set [7] was “greater in HSV1-TK than in EHV4-TK expressing cells”.

For `Nc1nc2c(ncn2COC(CO)CO)c(=O)[nH]1` [GCV, 9-(1,3-dihydroxy-2-propoxymethyl)guanine], the IC50 in the data set on tk(-) 3T3 cells amounted to 30000 nM; in [1], 200 nM; in data set [2] it was 6000 nM; with NIH-3T3 (setting [14]) it was 70000 nM; in the data set on NIH-3T3 (setting [15]) it was 36700 nM; in [4], 8000 nM. For the same compound, the IC50 was 100 nM in [5]; 110 ± 20 nM in [8] (Homo sapiens, HCT-116, EHV4-TK HCT116, means ± SD for 3 independent experiments); 320 ± 80 nM in data set [9] (Homo sapiens, HCT-116, HSV1-TK HCT116, means ± SD for 3 independent experiments); 600 nM in data set [10]; 60 nM in [6]; 160 nM in data set [3]. Also, the IC50 in the data set with HCT116 cells was 53400 ± 15000 nM; in data set [12] (Mus musculus), 550 ± 70 nM; in data set [13], 1700 ± 500 nM. For the same compound, the “Selectivity Index” value is given as 350 in data set [1]; 12 in [2]; 9 in data set [4]; 700 in data set [5]; 612 in [6]; 230 in data set [3]. Besides, the “fold more sensitive than HCT116 cells” value is reported as 485 fold in data set [8] (EHV4-TK expressing vs parental HCT116) and 170 fold in [9] (HSV1-TK expressing vs parental HCT116). In addition, the “IC50 fold lower for EHV4-TK than for HSV1-TK expressing cells” value in data set [8] (HCT116) is recorded as 3 fold. Further, in data set [7], the “toxicity / sensitivity in EHV4-TK compared with HSV1-TK expressing cells” value is listed as “approximately twelve fold more sensitive”. Further, the “cerebral spinal fluid (CSF) concentrations, fold lower than plasmatic” value in data set [11] was “approximately 3 fold”. Moreover, in data set [12] (PANC-O2), the “IC50 fold lower for EHV4-TK than for HSV1-TK expressing cell bulk” value amounted to 3 fold.
